This experiment relates to CEM cells HIV-1 protection, formazan growth assay. In words: NCI AIDS Antiviral Assay. As to conditions: for IC50: measured here: growth of uninfected CEM cells. A digest of the protocol:
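CEM (human) cells, HIV-1 infected vs uninfected, 5-point dosing, formazan growth read-out. Retest threshold 50% protection.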

SMILES strings stand for the structures. “And” between values parts separate entries of the source, which are not always exact repeats. Equal entries are not always repeated. The source made the active and inactive calls.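 Rule for the calls: active = compounds giving half or more protection of infected cells from virus-caused growth loss, again on retest; inactive = the rest.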

As for `CN1c2ccccc2Oc2ccc3ccccc3c21`, the EC50 was above 200 µM and the IC50 amounted to 135 µM.

In the case of `Cc1nnnn1C12CC3CC(CC(C3)C1)C2`, the outcome was inactive.

Turning to `C/C(=C/C=C(/C)C(=O)O)C(=O)O`, the EC50 was above 1480 µM and the IC50 is above 1480 µM.

Consider `CC(C)(C)OC(=O)NC(Cc1ccc(O)cn1)C(N)=O` (stereo not given), for which the EC50 is above 200 µM and the IC50 was above 200 µM.

Regarding `CSc1ncnc2c1ncn2CCC#N`, the EC50 is above 200 µM and the IC50 is above 200 µM.

With `CCOC(=O)/C=C/c1ccc(F)cc1`, the EC50 is above 97.7 µM and the IC50 was above 97.7 µM.

In the case of `C=COCCC(C(=O)OCC)C(=O)OCC`, the EC50 is above 200 µM and the IC50 was above 200 µM.

`COc1ccc2cc1Oc1ccc(cc1)CC1c3c(cc4c(c3Oc3cc5c(cc3OC)CCN(C)C5C2)OCO4)CCN1C` (stereo not given): the outcome was inactive.

Turning to `O=C1c2cccc3cccc(c23)C(=O)N1CCCN1C(=O)c2cccc3cccc(c23)C1=O`, the EC50 was above 200 µM and the 50% inhibitory concentration (IC50) was 110 µM.

`COC(=O)CC(SCCO)SCCO`: the EC50 was above 200 µM and the IC50 is above 200 µM.

Consider `CC(C)CCC[C@@H](C)[C@H]1CC[C@H]2[C@@H]3CC=C4CC(OC(=O)OC5CCC6(C)CC7C=CC6(OO7)C5(C)C)CC[C@]4(C)[C@H]3CC[C@]12C` (stereo not given in full), for which the EC50 was above 100 µM and the IC50 was above 100 µM.

With `COc1cc(C(=O)N2CCc3c([nH]c4c([N+](=O)[O-])c(OC)ccc34)C2C)cc(OC)c1OC` (stereo not given), the result was inactive.

For the compound `Cc1[nH]c(C)c2ccc(=O)ccc12`, the EC50 is above 240 µM and the IC50 was 145 µM.

`CC12O[C@]3([C@H](C(=O)N4CCOC43C)[C@H]1Cl)[C@H]1O[C@H]12` (stereo not given in full): the outcome was inactive.

Consider `CC(C)n1c(=O)c2nn3c(=O)n(C(C)C)c(=O)c3nn2c1=O`, for which the EC50 is above 200 µM and the IC50 is above 200 µM.

Regarding `CC#CCCCC1(C)CCCNC1=S` (stereo not given), the EC50 was above 200 µM and the IC50 was above 200 µM.

Regarding `C/C(=N\Nc1ccccc1Br)c1cccc(/C(C)=N/Nc2ccccc2Br)n1`, the EC50 is above 100 µM and the IC50 stood at 85.1 µM.

For `Cc1cc(N=Nc2c(N)c(C)cc(N=Nc3ccc(C(N)=O)cc3)c2N)ccc1N=Nc1cc(C(=O)O)c(O)c(S(=O)(=O)O)c1`, the EC50 was 8.91 µM and the IC50 was above 200 µM.

Take `NS(=O)(=O)c1ccc(C(=O)O)cc1`: the EC50 is above 200 µM and the IC50 was above 200 µM.

Take `COC(=O)C(CC1CC(=O)N(CCc2c[nH]c3ccccc23)C1)C(=O)OC` (stereo not given): the EC50 is above 191 µM and the IC50 is above 191 µM.

Regarding `COC(=O)c1oc([N+](=O)[O-])c(-c2ccccc2)c1-c1ccccc1`, the EC50 was above 57.5 µM and the IC50 is above 57.5 µM.

For the compound `Cc1ccc(NC(=O)c2cnccn2)c(=O)o1`, the EC50 is above 200 µM and the IC50 was above 200 µM.

Take `COc1ccc(/C=C/C(=O)c2ccc(Br)cc2)cc1`: the EC50 was above 200 µM and the IC50 is 33.1 µM.

In the case of `CCCCCCCCCCNCCSSCCNC(C)=O`, the EC50 is above 200 µM and the IC50 came to 5.37 µM.

As for `CC(=O)NNC(=S)N/C=C(\C#N)C(=O)c1ccc2ccccc2c1`, the EC50 is above 200 µM and the IC50 was above 200 µM.

In the case of `NC(CO)(CO)CO`, the EC50 was above 200 µM and the IC50 is above 200 µM.

`COc1cc2nc3c(nc2cc1OC)-c1ccccc1C3=O`: the EC50 is 3.02 µM and the IC50 was determined as 9.33 µM.

For the compound `Cc1ccc(SSCC(O)C(O)CSSc2ccc(C)cc2)cc1` (stereo not given), the result was inactive.

Turning to `C=CCC(C=C=CCN(C)C)CO` (stereo not given), the EC50 was above 1200 µM and the IC50 was found to be 631 µM.

Turning to `CC1(C)CC(N2CCN(C3CC(C)(C)NC(C)(C)C3)CC2)CC(C)(C)N1`, the EC50 is above 339 µM and the IC50 was above 339 µM.

In the case of `O=C1C(Cl)=C(Cl)C(=O)N1c1ccc(Cl)c(Cl)c1Cl`, the result was inactive.

For the compound `COC(=O)CCc1ccc(CCC(=O)OC)cc1`, the EC50 was above 200 µM and the IC50 is above 200 µM.

In the case of `[O-]c1nn(C2OC(CO)C(O)C2O)c2cccc[n+]12` (stereo not given), the EC50 is above 933 µM and the IC50 was above 933 µM.

On to `CCCCCCCCCCCCCCCCOC(=O)c1cc(O)cc(C(=O)OCCCCCCCCCCCCCCCC)c1`, for which the result was inactive.

On to `CCOC(=O)C1(N=O)CCCCC1=O` (stereo not given), for which the EC50 is above 200 µM and the IC50 was above 200 µM.

`O=Cc1c2c(cc3c1CC1(C3)Cc3cc4c(c(C=O)c3C1)CCC4)CCC2`: the EC50 was above 200 µM and the IC50 is 34.7 µM.

Consider `OC1CC(c2ccccc2)Oc2ccccc21` (stereo not given), for which the outcome was inactive.

On to `N#Cc1c(N=C2CCCCC2)c(C(=O)Nc2ccccc2)n2c1CCC2`, for which the EC50 was above 100 µM and the IC50 was above 100 µM.

With `COC(=O)c1ccc(CSc2ccc(OC)cc2)cc1`, the result was inactive.

With `N#C/C=C\c1ccc(-c2cc(C(F)(F)F)cc(C(F)(F)F)c2)o1`, the EC50 is above 200 µM and the 50% inhibitory concentration (IC50) is 46.8 µM.

`CC(=O)OC[C@]12[C@H](OC(C)=O)[C@H](OC(C)=O)[C@@H]3C(OC(C)=O)[C@@]14OC3(C)COC(=O)c1cccnc1CCC(C)C(=O)OC([C@H](OC(C)=O)[C@@H]2OC(=O)c1ccccc1)[C@]4(C)O` (stereo not given in full): the EC50 is above 38.9 µM and the IC50 was above 38.9 µM.

As to `COC(=O)CC(CC(=O)C(=O)OC)C(=O)OC` (stereo not given), the EC50 was above 251 µM and the IC50 is above 251 µM.

For the compound `CC1(CO)NC(C(=O)O)Cc2c1[nH]c1ccccc21` (stereo not given), the EC50 is above 200 µM and the half-maximal inhibitory concentration (IC50) is above 200 µM.

As for `COC(=O)c1cc2ccccc2c2nc3ccccc3c(Cl)c12`, the EC50 is above 8.13 µM and the IC50 is above 8.13 µM.

On to `COc1cc2c(cc1OC)C13CCC(O)CC1=CC2(C)O3` (stereo not given), for which the EC50 was above 646 µM and the IC50 is above 646 µM.

With `CC(C)CCCC(C)[C@H]1CC[C@H]2[C@@H]3CC[C@H]4C[C@@H](CCCC(c5cc(Cl)c(OCc6ccc(C(=O)O)cc6)c(C(=O)O)c5)c5cc(Cl)c(OCc6ccc(C(=O)O)cc6)c(C(=O)O)c5)CC[C@]4(C)[C@H]3CC[C@]12C` (stereo not given in full), the EC50 is 20.4 µM and 3.39 µM; the IC50 was > 200 µM and 20 µM.

In the case of `C=CC(C)(C)C12CC3C(=O)N/C(=C\c4cnc[nH]4)C(=O)N3C1Nc1ccccc12` (stereo not given), the EC50 was above 200 µM and the IC50 was 91.2 µM.

On to `O=c1c2ccccc2n2c(-c3ccc(O)cc3)nnc2n1-c1ccccc1`, for which the EC50 was above 200 µM and the IC50 was above 100 µM.

As to `O=C(CCC(=O)Nc1ccc(Cl)c(Cl)c1)CC(=O)c1ccc2ccccc2c1`, the result was inactive.

As for `Cc1ccc(SC2C(=O)C3CC(OCc4ccccc4)C2(C)C3(C)C)cc1` (stereo not given), the EC50 is above 200 µM and the IC50 was above 200 µM.

For the compound `CCC12C=CCN3CC[C@@]4(c5cc([C@@]6(C(=O)OC)CC7CN(CCc8c6[nH]c6ccccc86)C[C@](O)(CC)C7)c(OC)cc5N(C)[C@H]4[C@]4(OCOC4=O)[C@@H]1O)C32` (stereo not given in full), the result was inactive.

As for `NC(=O)N/N=C1\CCCCc2ccccc21`, the EC50 is above 200 µM and the IC50 is above 200 µM.

Consider `CC(=O)N1N=C(c2ccc3ccccc3c2O)CC1c1ccc(N(C)C)cc1` (stereo not given), for which the EC50 is above 50.1 µM and the IC50 was above 50.1 µM.

These data come from PubChem BioAssay AID179 (DTP/NCI, 2004).
